According to ChEMBL document CHEMBL5214920, “Emerging impact of triazoles as anti-tubercular agent” (Eur J Med Chem, 2022):
Converted amounts (≈) assume the structure as drawn.

Columns and labels:
[1] = test system: Mycobacterium tuberculosis; assay: Antitubercular activity against Mycobacterium tuberculosis H37Rv assessed as bacterial growth inhibition measured after 7 days by REMA method; assay type: functional; details: 168 h, time 7 day
[2] = test system: Mycobacterium tuberculosis; assay: Antitubercular activity against Mycobacterium tuberculosis H37Rv assessed as bacterial growth inhibition measured after 7 days by direct susceptibility assay; assay type: functional; details: 168 h, time 7 day
[3] = test system: Mycobacterium tuberculosis; assay: Antitubercular activity against Mycobacterium tuberculosis H37Rv assessed as bacterial growth inhibition by micro broth dilution assay; assay type: functional
[4] = test system: Mycobacterium tuberculosis; assay: Antitubercular activity against Mycobacterium tuberculosis H37Rv ATCC 27294 assessed as bacterial growth inhibition; assay type: functional
[5] = test system: Mycobacterium tuberculosis; assay: Antitubercular activity against Mycobacterium tuberculosis H37Rv assessed as bacterial growth inhibition; assay type: functional
[6] = test system: Mycobacterium tuberculosis; assay: Antitubercular activity against Mycobacterium tuberculosis mc 2 6230 assessed as bacterial growth inhibition; assay type: functional
[7] = test system: Mycobacterium tuberculosis; assay: Antitubercular activity against Mycobacterium tuberculosis H37Rv assessed as bacterial growth inhibition at 6.25 ug/ml measured after 5 to 8 days by radiometric analysis relative to control; assay type: functional; design: scale not given: the % may be the effect or the level left; details: dose 6.25 µg/ml; time 5-8 day
[8] = test system: Mycobacterium tuberculosis; assay: Antitubercular activity against Mycobacterium tuberculosis H37Rv assessed as bacterial growth inhibition measured after 7 days by MABA method; assay type: functional; details: 168 h, time 7 day
[9] = molecular target: DNA gyrase subunit B (Mycobacterium smegmatis, UniProt P0C559); assay: Inhibition of Mycobacterium smegmatis GyrB incubated for 120 mins in presence of ATP by malachite green r staining based assay; design: species or system Mycolicibacterium smegmatis
[10] = molecular target: DNA gyrase subunit A/DNA gyrase subunit B (Mycobacterium tuberculosis (strain ATCC 25618 / H37Rv), UniProt P9WG45+P9WG47); assay: Inhibition of Mycobacterium tuberculosis DNA gyrase supercoiling activity; assay type: protein-complex assay
[11] = test system: Mycobacterium tuberculosis; assay: Antitubercular activity against Mycobacterium tuberculosis H37Rv ATCC 27294 assessed as bacterial growth inhibition by agar dilution method; assay type: functional
[12] = test system: Mycobacterium tuberculosis; assay: Antitubercular activity against Mycobacterium tuberculosis H37Rv ATCC 27294 assessed as bacterial growth inhibition measured after 10 days by MABA method; assay type: functional; details: H37Rv ATCC 27294, 240 h, time 10 day
[13] = test system: Mycobacterium tuberculosis; assay: Antitubercular activity against Mycobacterium tuberculosis mc 2 7000 assessed as bacterial growth inhibition; assay type: functional
[14] = test system: Mycobacterium tuberculosis; assay: Antitubercular activity against Mycobacterium tuberculosis H37Rv assessed as reduction in relative light units at 25 ug/ml incubated for 4 hrs followed by addition of D-luciferin by luciferase based luminometer analysis relative to control; assay type: functional; design: scale not given: the % may be the effect or the level left; details: dose 25 µg/ml
[15] = test system: Mycobacterium tuberculosis; assay: Antitubercular activity against Mycobacterium tuberculosis H37Rv assessed as reduction in relative light units at 5 ug/ml incubated for 4 hrs followed by addition of D-luciferin by luciferase based luminometer analysis relative to control; assay type: functional; design: scale not given: the % may be the effect or the level left; details: dose 5 µg/ml
[16] = test system: Mycobacterium tuberculosis; assay: Antitubercular activity against Mycobacterium tuberculosis H37Rv ATCC 27294 assessed as bacterial growth inhibition measured after 5 days by MABA method; assay type: functional; details: H37Rv ATCC 27294, 120 h, time 5 day
[17] = test system: Mycobacterium tuberculosis; assay: Antitubercular activity against Mycobacterium tuberculosis H37Rv assessed as bacterial growth inhibition measured after 5 days by MABA method; assay type: functional; details: 120 h, time 5 day
[18] = test system: Mycobacterium tuberculosis; assay: Antitubercular activity against Mycobacterium tuberculosis H37Rv assessed as bacterial growth inhibition measured after 7 days by broth microdilution assay; assay type: functional; details: 168 h, time 7 day
[19] = test system: Mycobacterium tuberculosis; assay: Antitubercular activity against Mycobacterium tuberculosis H37Rv ATCC 27294 assessed as bacterial growth inhibition measured after 7 days by MABA method; assay type: functional; details: H37Rv ATCC 27294, 168 h, time 7 day
[20] = test system: Mycobacterium tuberculosis; assay: Antitubercular activity against dormant stage of Mycobacterium tuberculosis H37Ra ATCC 25177 assessed as bacterial growth inhibition by XTT assay; assay type: functional
[21] = test system: Mycobacterium tuberculosis; assay: Antitubercular activity against active stage of Mycobacterium tuberculosis H37Ra ATCC 25177 assessed as bacterial growth inhibition by XTT assay; assay type: functional
[22] = test system: Mycobacterium tuberculosis; assay: Antitubercular activity against Mycobacterium tuberculosis H37Rv assessed as bacterial growth inhibition measured after 24 hrs by agar micro dilution method; assay type: functional
[23] = test system: Mycobacterium tuberculosis; assay: Antitubercular activity against Mycobacterium tuberculosis H37Rv ATCC 27294 assessed as bacterial growth inhibition measured after 48 hrs by broth dilution method; assay type: functional

Cc1cc(=O)oc2cc(OCc3cn(CCCCCCCCCCn4cc(COc5cc6oc(=O)cc(C)c6cc5Cl)nn4)nn3)c(Cl)cc12
MIC [1]: 1.56 µg/mL (≈ 2.16 µM)

O=C1C(=O)N(Cc2cn(Cc3ccc([N+](=O)[O-])c([N+](=O)[O-])c3)nn2)c2ccccc21
MIC [2]: 7.56 µg/mL (≈ 18.5 µM)

Brc1ccc(/C=C/c2nnc3c4ccccc4cnn23)cc1
MIC [3]: 0.5 µg/mL

CCCCCc1ccc(-c2cn(-c3c(C(=O)OCC)c(=O)n(C)c4ccccc34)nn2)cc1
MIC [4]: 3.13 µg/mL (≈ 7.04 µM)

O=C1Nc2ccccc2/C1=N\OCc1cn(Cc2ccc(C(F)(F)F)cc2)nn1
MIC [5]: 1.56 µg/mL (≈ 3.89 µM)

C#Cc1nnc2c3ccccc3cnn12
MIC [3]: 0.5 µg/mL

COc1ccc2c(c1)/C(=N/NC(=O)c1ccncc1)C(=O)N2Cc1cn(-c2ccccc2/C=N\NC(=O)c2ccncc2)nn1
MIC99 [6]: 0.36 µg/mL (≈ 0.599 µM)

Cc1nc2ccccc2n2c(-c3cccc([N+](=O)[O-])c3)nnc12
Activity [7]: 2%

CO/N=C1/C(=O)C(CCOCCOCCOCCn2cc(CN3C(=O)/C(=N/OC)c4cc(F)ccc43)nn2)c2ccccc21 (centres undefined)
MIC [2]: 128 µg/mL (≈ 210 µM)

CCCCCCCCCNC(=O)Cc1nnc2c3ccccc3cnn12
MIC [3]: 0.5 µg/mL

COc1ccc2cc(-n3cc(COc4nc(-c5ccccn5)sc4C(N)=O)nn3)c(=O)oc2c1
MIC [8]: 6.5 µM | IC50 [9]: 440 nM | IC50 [10]: 500 nM

CC1(C)OC2C3OC(C)(C)O[C@H]3C(Cn3cc(N4CCCC4=O)nn3)O[C@@H]2O1 (some centres undefined)
MIC [11]: 3.12 µg/mL (≈ 7.92 µM)

CC1=CN([C@H]2C[C@H](O)[C@@H](Cn3nnc(C(=O)c4ccc(Cl)cc4)c3-c3ccc(C(C)(C)C)cc3)O2)C(=O)CC1=O
MIC [12]: 2 µg/mL (≈ 3.55 µM)

CCOC(=O)c1c(-n2cc(-c3ccc(C)cc3)nn2)c2ccccc2n(C)c1=O
MIC [4]: 3.13 µg/mL (≈ 8.06 µM)

COc1ccc(-n2nc(C)cc2Cn2cncn2)cc1
MIC [1]: 100 µg/mL (≈ 371 µM)

O=C(N/N=C\c1ccccc1-n1cc(CN2C(=O)/C(=N\NC(=O)c3ccncc3)c3cc(Cl)ccc32)nn1)c1ccncc1
MIC99 [6]: 0.36 µg/mL (≈ 0.595 µM)

CC1=CN([C@H]2C[C@H](O)[C@@H](Cn3nnc(C(=O)c4ccc(Br)cc4)c3-c3ccc([N+](=O)[O-])cc3)O2)C(=O)CC1=O
MIC [12]: 2 µg/mL (≈ 3.35 µM)

CC1=CN([C@H]2C[C@H](O)[C@@H](Cn3nnc(C(=O)c4ccc(Cl)cc4)c3-c3ccc(F)cc3)O2)C(=O)CC1=O
MIC [12]: 2 µg/mL (≈ 3.81 µM)

O=C(OCc1cn(-c2ccccc2)nn1)c1c[n+]([O-])c2ccc(Cl)cc2[n+]1[O-]
MIC [13]: 30.4 µg/mL | MIC [5]: 30.4 µg/mL (≈ 76.3 µM) | MIC [6]: 30.4 µg/mL (≈ 76.3 µM)

CC1(C)OC2C3OC(C)(C)O[C@H]3C(Cn3cc(N4C(=O)CCC4=O)nn3)O[C@@H]2O1 (some centres undefined)
MIC [11]: 3.12 µg/mL (≈ 7.65 µM)

COc1cccc(-c2nnc3c(C)nc4ccccc4n23)c1
Activity [7]: 2%

Cc1nc2ccccc2n2c(-c3ccc(N(C)C)cc3)nnc12
Activity [7]: 2%

O=C1C(=O)N(Cc2cn(Cc3ccc(Br)cc3)nn2)c2ccccc21
MIC [2]: 8.09 µg/mL (≈ 20.4 µM)

CC(=O)OC[C@H]1O[C@@H](Oc2cn(Cc3ccc4ccccc4n3)nn2)[C@H](OC(C)=O)[C@@H](OC(C)=O)[C@H]1OC(C)=O
Activity [14]: 78.37% | Activity [15]: 76.41%

Cc1nc2ccccc2n2c(-c3ccccc3)nnc12
Activity [7]: 2%

CC1=C(C(=O)O)N2C(=O)[C@@H](NC(=O)[C@H](N)c3ccccc3)[C@H]2SC1 [CEPHALEXIN ANHYDROUS]
MIC [13]: 72 µM

O=C(O)c1cn(C2CC2)c2cc(N3CCNCC3)c(F)cc2c1=O [CIPROFLOXACIN]
MIC [2]: 3.12 µg/mL (≈ 9.42 µM) | MIC [16]: 3.12 µM | MIC [17]: 3.12 µg/mL (≈ 9.43 µM)

CC[C@@H](CO)NCCN[C@@H](CC)CO [ETHAMBUTOL]
MIC [16]: 7.63 µM | MIC [3]: 1 µg/mL | MIC [18]: 6.25 µM (≈ 1.28 µg/mL) | MIC [8]: 1.56 µg/mL | MIC [19]: 7.64 µM (≈ 1.56 µg/mL) | MIC [17]: 1.56 µg/mL (≈ 7.64 µM)

CCc1cc(C(N)=S)ccn1 [ETHIONAMIDE]
MIC [13]: 90.4 µM

NNC(=O)c1ccncc1 [ISONIAZID]
MIC [13]: 2.92 µM | MIC [2]: 0.075 µg/mL (≈ 0.547 µM) | MIC [16]: 0.7 µM | MIC [3]: 0.05 µg/mL | MIC [12]: > 300 µg/mL | MIC [20]: 0.043 µg/mL (≈ 0.314 µM) | MIC [21]: 0.074 µg/mL (≈ 0.54 µM)

CN[C@@H]1[C@H](O[C@H]2[C@H](O[C@H]3[C@H](O)[C@@H](O)[C@H](N=C(N)N)[C@@H](O)[C@@H]3N=C(N)N)O[C@@H](C)[C@]2(O)C=O)O[C@@H](CO)[C@H](O)[C@H]1O [STREPTOMYCIN]
MIC [16]: 6.25 µg/mL | MIC [12]: 2 µg/mL (≈ 3.44 µM) | MIC [22]: 3.12 µg/mL (≈ 5.37 µM) | MIC [17]: > 6.25 µg/mL

Cc1ccc(-c2nc3ccc(C)cn3c2CC(=O)N(C)C)cc1 [ZOLPIDEM]
MIC [16]: 3.12 µg/mL | MIC [23]: 10 µM (≈ 3.07 µg/mL)
